# According to patent publication US20030092770A1, “Combination therapy for treatment of depression” (priority 2002, published 2003):
# Test system: mouse
# Assay: Forced Swim Test (FST) in the mouse
# Assay type: in vivo
# Experimental: The duration of immobility during the last four minutes of the six minute test period is scored. A mouse is recorded as immobile when floating motionless or making only those movements necessary to keep its head above water.
# An augmentation of action would be reflected by a reduction in immobility that is greater than the arithimetic sum of the effect of each agent alone. […] Standard statistical tests can be used to determine if this difference is significant. The same general strategy can be applied to the forced swim test as carried out in rats (below) as well as the tail suspension test, also described below.
smiles,measurement,setting,value
CC(CNS(=O)(=O)C(C)C)c1ccc(-c2ccsc2)cc1 (stereo not shown) [Example 392098],minimum effective dose (MED) in the Forced Swim Test,"392098 alone, i.p., mice",0.5 mg/kg
same,immobility of the mouse in the Forced Swim Test,392098 at a dose as low as 25 micrograms/kg combined with a subeffective dose of imipramine (5 mg/kg),statistically significant reduction in immobility
same,effect in the Forced Swim Test,"392098 by itself, low doses (0.025-0.1 mg/kg), mice",no effect
same,shift in the dose response curve of 392098,"administered in combination with a subeffective dose of imipramine, Forced Swim Test, mice",at least 20 fold
